“Also recorded” adds a separate entry of the source.
Experiments:
HEK293 cells = test: In vitro splicing of endogenous transcripts (qRT-PCR, RT-PCR) in HEK293; assay type: cell-based
Experimental: (§1) For qRT-PCR analysis of relative total mRNA expression levels or splice isoform-specific expression analyses, cDNA was synthesized using 50 ng-1 pg of template RNA in 20 μL reaction volumes using the First-Strand SUPERSCRIPT™ III Reverse Transcriptase Supermix (Life Technologies) followed by incubation with RNase H according to the manufacturer's protocol and as described previously. All cDNA products were stored at −20° C. Splice isoform-specific primers for PTK2B-202 were designed to bind to unique exon junctions for this transcript, which lacks exon 24. […] For standard qRT-PCR, human HPRT mRNA transcript levels were used to normalize Ct values obtained for each gene, and relative expression levels were calculated using the 2^−ddCt method. […]
as §1, with “[…]” for “pg”, “[…]” for “μL”, “previously (Abrahamsson et al., 2009; Crews et al., 2015).” for “previously. All cDNA products were stored at −20° C. Splice isoform-specific primers for PTK2B-202 were designed to bind to unique exon junctions for this transcript, which lacks exon 24.”, “2-ddCt” for “2^−ddCt”

[1] = system: CD34+ cells from normal aged bone marrow; test: SL/M2 stromal co-culture with colony and replating assays, normal bone marrow; assay type: cell-based, human; settings: normal aged bone marrow samples
Experimental: In hypothesis-driven experiments, the splicing modulatory compound 17S-FD-895 was tested to determine efficacy in altering splicing activity in cell lines, and to evaluate effects on AML LSC survival and self-renewal capacity in humanized bone marrow stromal co-cultures and in PRIMAGRAFT™ AML LSC models. Cell culture experiments were performed using 293T and sAML (MOLM-13) cell lines, and SL and M2 bone marrow stromal cell lines. Animal studies were performed using immunocompromised Rag2−/−γc−/−[20] or NOD/SCID-IL2RG mice (Jackson Laboratory, Bar Harbor, Me.). Primary AML and normal control samples were used in in vitro hematopoietic stem and progenitor assays after bone marrow stromal co-culture and treatment with splicing modulatory compounds (FD-895 or 17S-FD-895) or vehicle control (DMSO). Colony formation potential and self-renewal capacity were assessed by counting colony numbers (survival) after two weeks of growth in semi-solid (methylcellulose) media, and subsequent replating capacity (self-renewal) was assessed after transfer to fresh methylcellulose for an additional two weeks of culture. Three primary AML samples were utilized to establish PRIMAGRAFT™ models in immunocompromised mice, and mice engrafted with cells from two of these models (AML-37 and AML-08) were treated with 17S-FD-895 or vehicle (DMSO) to evaluate changes in AML LSC survival and self-renewal capacity in vivo. Data were collected by flow cytometry and qRT-PCR analysis of CD34-selected human LSC-enriched cells from engrafted mice.
Bone marrow SL/M2 monolayers were established from freshly inactivated (irradiated) cells and then human CD34^+ cells selected from AML primary samples (n=8) and normal controls (CD34^+ cells from cord blood, CB, n=6; or aged bone marrow, n=6) were added. Survival and self-renewal of the CD34+ cells were investigated by methylcellulose-based colony and replating assays. Two SF3B1-targeted splicing modulators, FD-895 or 17S-FD-895, were added at the initiation of co-culture at concentrations ranging from 0.1 to 10 μM.
As previously described (Goff et al., 2013), humanized bone marrow SL/M2 monolayers were inactivated (irradiated) and then human CD34^+ cells selected from AML primary samples and normal controls were added for two weeks of co-culture, followed by methylcellulose-based colony and replating assays. FD-895 or 17S-FD-895 were added at the initiation of co-culture, with DMSO as a vehicle control.

## CC[C@H](OC)[C@@H](C)[C@H]1O[C@@H]1[C@@H](O)[C@H](C)/C=C/C=C(\C)[C@H]1OC(=O)C[C@H](O)CC[C@@](C)(O)[C@@H](OC(C)=O)/C=C/[C@@H]1C (stereo in doubt) [Formula 17S-FD-895, 17S-FD-895]
HEK293 cells; HEK293, 0.01-10 μM, 4 hrs
  MCL1-S expression (qRT-PCR): low doses of 17S-FD-895 increased MCL1-S expression, this effect was reversed at high doses
HEK293 cells; HEK293 cells, compared with MOLM-13
  DNAJB1 intron 2 levels: to a lesser extent
[1]
  erythroid colony formation and self-renewal: not significantly changed; also recorded: no effect on erythroid colonies
  granulocyte-macrophage (myeloid) colony survival: slight decrease; also recorded: reduces myeloid colony formation
